In brackets after ≈: the same amount, converted by molar mass.

The test system of assay [1] is Hep 3B human liver cancer cells. Particulars: 0.0043 μg/ml Lovastatin alone (control group).
Description: (§9) First, Hep 3B human liver cancer cells and Hep G2 human liver cancer cells were respectively cultured in culture medium supplemented with fetal bovine serum for 24 hours. The proliferative cells were washed with PBS once, and treated with one-fold trypsin/EDTA solution. After centrifuged at 1,200 rpm for 5 min, the supernatant was removed and the cell pellet was transferred to new tubes and treated with 10 ml medium to suspend the cells again. Before the assay, the Hep 3B cell line was treated with 0.0043 μg/ml Lovastatin for 72 hours and the Hep G2 cell line was treated with 0.0017 μg/ml Taxol for 72 hours, and then plated in 96 well microplates. Doses of 4,7-dimethoxy-5-methy-1,3-benzodioxole were 30, 10, 3, 1, 0.3, 0.1, and 0.03 μg/ml (the experimental group) and 0 μg/ml of 4,7-dimethoxy-5-methy-1,3-benzodioxole (the control group) for each well incubated at 37° C., 5% CO2 for 48 hours. 2.5 mg/ml MTT dye is added to each well without light and incubated for 4 hours, then treated with 100 μl lysis buffer to stop the reaction. Subsequently, absorption was measured on an enzyme immunoassay analyzer at 570 nm for the measurement of viable cell number. The concentration of the drug measured at 50% of the cell death (i.e. IC50 value) was determined and calculated.
Assay [2] has as its system MCF-7 human breast cancer cells. Description: In vitro assay of anti-tumor activity of breast cancer (MTT assay). Type of assay: cell-based. Particulars: MCF7, 48 h. The text has this: (§1) According to anti-tumor agents screening model of National Cancer Institute (NCI) of the United States National Institutes of Health, the assay is processed by adding 4,7-dimethoxy-5-methy-1,3-benzodioxole into the culture medium of MCF-7 human tumor cells and MDA-MB-231 human tumor cells respectively. The assay of tumor cell viability can be evaluated by using the conventional MTT assay, and MCF-7 and MDA-MB-231 are human breast cancer tumor cell lines.
(§2) MTT assay is a conventional assay used to analyze the cell proliferation, percentage of viable cells, and cytotoxicity. MTT (3-(4,5-dimethylthiazole-2-yl)-2,5-diphenyl tetrazolium bromide) is a yellow dye, and is metabolized only in living cells by the mitochondrial succinate-tetrazolium reductase system to produce blue violet insoluble formazan products, thereby providing a measure of the number of viable cells upon generation of formazan products in viable cells.
(§3) Doses of ethyl alcohol extract of Antrodia camphorata (the control group) were respectively 30, 10, 3, 1, 0.3, 0.1, and 0.03 μg/ml for each well and 4,7-dimethoxy-5-methy-1,3-benzodioxole (the experimental group) were respectively 30, 10, 3, 1, 0.3, 0.1, and 0.03 μg/ml for each well incubated at 37° C., 5% CO2 for 48 hours. 2.5 mg/ml MTT dye is added to each well without light and incubated for 4 hours, then treated with 100 μl lysis buffer to stop the reaction.

For assay [3], the system named is MDA-MB-231 human breast cancer cells. The description is as above. Particulars: MDA-MB-231, 48 h. The class given is cell-based.
Source text: as §1, §2, §3

Assay [4] has as its system Hep 3B human liver cancer cells. Description: In vitro assay of anti-tumor activity of liver cancer (MTT assay). Type of assay: cell-based. Conditions: Hep3B, 48 h. Here is the method: (§4) According to anti-tumor agents screening model of National Cancer Institute (NCI) of the United States National Institutes of Health, the assay is processed by adding 4,7-dimethoxy-5-methy-1,3-benzodioxole into the culture medium of Hep 3B and Hep G2 human liver cancer tumor cells respectively.
(§5) Doses of ethyl alcohol extract of Antrodia camphorate (the control group) were respectively 30, 10, 3, 1, 0.3, 0.1, and 0.03 μg/ml for each well and 4,7-dimethoxy-5-methy-1,3-benzodioxole (the experimental group) were respectively 30, 10, 3, 1, 0.3, 0.1, and 0.03 μg/ml for each well incubated at 37° C., 5% CO2 for 48 hours. 2.5 mg/ml MTT dye is added to each well without light and incubated for 4 hours, then treated with 100 μl lysis buffer to stop the reaction.

In assay [5] the test system is Hep G2 human liver cancer cells. Described as above. Type of assay: cell-based. Particulars: HepG2, 48 h. As to the method:
as §4, §5

The subject of assay [6] is DU-145 human prostate cancer cells. The assay is described as follows: In vitro assay of anti-tumor activity of prostate cancer (MTT assay). The class given is cell-based. Conditions: DU-145, 48 h. Here is the method:
(§6) According to anti-tumor agents screening model of National Cancer Institute (NCI) of the United States National Institutes of Health, the assay is processed by adding 4,7-dimethoxy-5-methy-1,3-benzodioxole into the culture medium of LNCaP and DU-145 human prostate cancer tumor cells respectively.
(§7) Doses of ethyl alcohol extract of Antrodia camphorata (the control group) were respectively 30, 10, 3, 1, and 0.3 μg/ml for each well and 4,7-dimethoxy-5-methy-1,3-benzodioxole (the experimental group) were respectively 30, 10, 3, 1, and 0.3 μg/ml for each well incubated at 37° C., 5% CO2 for 48 hours. 2.5 mg/ml MTT dye is added to each well without light and incubated for 4 hours, then treated with 100 μl lysis buffer to stop the reaction.

In assay [7] the test system is LNCaP human prostate cancer cells. Described as above. The class given is cell-based. Particulars: 48 h. As to the method:
as §6, §7

The test system is the same in assay [8]. Description: In vitro activity assay of adjuvant treatment of prostate cancer tumor cells using Taxol (MTT assay). Type of assay: cell-based. As to the method: (§8) Doses of 4,7-dimethoxy-5-methy-1,3-benzodioxole were 30, 10, 3, 1, 0.3, 0.1, and 0.03 μg/ml (the experimental group) and 0 μg/ml of 4,7-dimethoxy-5-methy-1,3-benzodioxole (the control group) for each well incubated at 37° C., 5% CO2 for 48 hours. 2.5 mg/ml MTT dye is added to each well without light and incubated for 4 hours, then treated with 100 μl lysis buffer to stop the reaction.

The test system of assay [9] is MCF-7 human breast cancer cells. The assay is described as follows: In vitro activity assay of adjuvant treatment of breast cancer tumor cells using Taxol (MTT assay). Type of assay: cell-based. Conditions: MCF-7, 0.0017 μg/ml Taxol alone (control group, 0 μg/ml benzodioxole). As to the method: as §8
In assay [10] the test system is MDA-MB-231 human breast cancer cells. The description is as above. Type of assay: cell-based. Conditions: MDA-MB-231, 0.0017 μg/ml Taxol alone (control group, 0 μg/ml benzodioxole). As to the method:
as §8

Assay [11] has as its system DU-145 human prostate cancer cells. Description: In vitro activity assay of adjuvant treatment of prostate cancer tumor cells using Taxol (MTT assay). Type of assay: cell-based. Particulars: DU-145, 0.0043 μg/ml Taxol alone (control group). Here is the method: as §8
For assay [12], the system named is Hep G2 human liver cancer cells. Particulars: Hep G2, 0.0017 μg/ml Taxol alone (control group).
Description: as §9

In the case of `CC[C@H](C)C(=O)O[C@H]1C[C@@H](C)C=C2C=C[C@H](C)[C@H](CC[C@@H]3C[C@@H](O)CC(=O)O3)[C@H]21` [Lovastatin], in assay [1], the “The ratio of viable cells (%)” value amounted to 69 ± 1%.

Regarding `COc1cc(C)c(OC)c2c1OCO2` [4,7-dimethoxy-5-methy-1,3-benzodioxole], the IC50 was determined as 1.72 µg/mL (≈ 8.77 µM) in [2]; 0.992 µg/mL (≈ 5.06 µM) in assay [3]; 0.016 µg/mL (≈ 0.0815 µM) in assay [4]; 2.46 µg/mL (≈ 12.5 µM) in assay [5]; 2.21 µg/mL (≈ 11.3 µM) in [6]; 4.46 µg/mL (≈ 22.7 µM) in [7]. The IC50 in [8] (Homo sapiens) was 1.16 µg/mL.

In the case of `CC(=O)O[C@H]1C(=O)[C@@]2(C)[C@H]([C@H](OC(=O)c3ccccc3)[C@]3(O)C[C@H](OC(=O)[C@H](O)[C@@H](NC(=O)c4ccccc4)c4ccccc4)C(C)=C1C3(C)C)[C@]1(OC(C)=O)CO[C@@H]1C[C@@H]2O` [Taxol], the “The ratio of viable cells (%)” value in assay [9] is reported as 69 ± 1%; in assay [10], 86 ± 1%; in assay [11], 71 ± 1%; in [8] (0.0017 μg/ml Taxol alone (control group)), 55 ± 1%; in [12] it was 86 ± 1%.

The record behind these values is patent publication US20080103195A1, “COMPOUNDS FROM ANTRODIA CAMPHORATA FOR INHIBITING THE GROWTH OF CANCER TUMOR CELLS” (priority 2006, published 2008).
